In patent US8748461B2, “Metalloenzyme inhibitor compounds” (Viamet Pharmaceuticals, Inc., priority 2011, dated 2014):
≈ marks a conversion by molar mass, not a printed value.

How the values were obtained:
[1] = test system: C. albicans; assay: Minimum Inhibitory Concentration (MIC) (C. albicans), CLSI M27-A2; type: cell-based; details: Candida albicans; about 50% growth reduction; approximately 48 h at 35±1° C.
Method: A. Minimum Inhibitory Concentration (MIC) (C. albicans) Compounds of the present disclosure were assessed for their ability to inhibit the growth of common strains of fungus, C. albicans using a standardized procedure (CLSI M27-A2). Stock solutions of the test compounds and standards were prepared in DMSO at 1,600 μg/mL (C. albicans). Eleven, serial, one-half dilutions of compounds were prepared in 96-well plates in RPMI+MOPS. The assay concentration ranges were 8-0.001 μg/mL (C. albicans). Cell suspensions of C. albicans were prepared and added to each well at concentrations of approximately 3.7×10^3 colony-forming-units per milliliter (cfu/mL). All testing was in duplicate. The inoculated plates were incubated for approximately 48 h at 35±1° C. At the completion of incubation the wells of each plate were evaluated visually for the presence of fungal growth. […] For QC purposes C. krusei isolate ATCC 6258 (4.0×10^3 cfu/mL) was included in the VOR assay.

[2] = test system: Septoria tritici (ATCC 26517); assay: Minimum Inhibitory Concentration (MIC) vs. Septoria tritici; type: cell-based; details: Zymoseptoria tritici, ATCC26517, 168 h; 50% reduction in growth of S. tritici; 22° C., seven days; read-out: Septoria Rating (MIC)
Outline: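 Growth inhibition of S. tritici by CLSI-based filamentous-fungus microdilution, 2-fold series 16 to 0.016 μg/mL in RPMI-1640/MOPS with 2% DMSO. Inoculum approximately 5×10^4 cfu/mL; plates incubated 22° C, seven days, dark, unshaken.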

[3] = target: T1, CYP2C9 (Homo sapiens, UniProt P11712); assay: Inhibition of liver cytochrome P450 enzymes, isozyme 2C9; type: in vitro ADME; details: pooled human liver microsomes
T1 construct: from tissue; host or cells: pooled human liver microsomes
Method: (§1) B. […] Solutions of each test compound were separately prepared at concentrations of 20000, 6000, 2000, 600, 200, and 60 μM by serial dilution with DMSO:acetonitrile (MeCN) (50:50 v/v). The individual test compound solutions were then diluted 20-fold with DMSO:MeCN:deionized water (5:5:180 v/v/v) to concentrations of 1000, 300, 100, 30, 10, and 3 μM. […] The mixed inhibitor solutions were then diluted 20-fold with DMSO:MeCN:deionized water (5:5:180 v/v/v) to concentrations of 300, 100, 30, 10, 3, 1, 0.3, and 0.1 μM. The percent of organic solvent attributable to the test compound or inhibitor mixture in the final reaction mixture was 2% v/v. Pooled human liver microsome suspension (20 mg/mL) was diluted with phosphate buffer to obtain a 5 mg/mL suspension. A solution of NADPH was prepared in phosphate buffer at a concentration of 5 mM. Separate stock solutions of each substrate were prepared in DMSO:MeCN (50:50 v/v), mixed, and diluted in phosphate buffer to obtain a single solution containing each substrate at five times its experimentally determined Km concentration. […] A portion of the supernatant was analyzed by gradient reverse-phase HPLC with detection by electrospray ionization triple quadrupole mass spectrometry in the positive ion mode. Data was fitted to sigmoid dose-response curves and the inhibitory potency of each test compound was determined as its IC50 value.

[4] = target: T2, CYP2C19 (Homo sapiens, UniProt P33261); assay: Inhibition of liver cytochrome P450 enzymes, isozyme 2C19; type: in vitro ADME; details: pooled human liver microsomes
T2 construct: from tissue; host or cells: pooled human liver microsomes
Method: as §1

[5] = test system: Puccinia recondita tritici = Puccinia triticina; assay: Fungicidal activity vs. leaf rust on wheat plants; type: in vivo; details: 50 ppm spray on wheat (Yuma), inoculated the following day, evaluated 7-9 days later; read-out: Puccinia Rating (% Disease Control @ 50 ppm)
Outline: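 Wheat seedlings were sprayed to wetness with compound at 50 ppm in 10% acetone/Triton X100 water, at about 1500 L/ha. They were inoculated with P. recondita tritici spores the following day and held overnight at high humidity before greenhouse growth. Disease severity was rated 7-9 days later on a rating scale.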

[6] = target: T3, CYP3A4 (Homo sapiens, UniProt P08684); assay: Inhibition of liver cytochrome P450 enzymes, isozyme 3A4; type: in vitro ADME; details: pooled human liver microsomes
T3 construct: from tissue; host or cells: pooled human liver microsomes
Method: as §1

T2 sequence (P33261 whole entry): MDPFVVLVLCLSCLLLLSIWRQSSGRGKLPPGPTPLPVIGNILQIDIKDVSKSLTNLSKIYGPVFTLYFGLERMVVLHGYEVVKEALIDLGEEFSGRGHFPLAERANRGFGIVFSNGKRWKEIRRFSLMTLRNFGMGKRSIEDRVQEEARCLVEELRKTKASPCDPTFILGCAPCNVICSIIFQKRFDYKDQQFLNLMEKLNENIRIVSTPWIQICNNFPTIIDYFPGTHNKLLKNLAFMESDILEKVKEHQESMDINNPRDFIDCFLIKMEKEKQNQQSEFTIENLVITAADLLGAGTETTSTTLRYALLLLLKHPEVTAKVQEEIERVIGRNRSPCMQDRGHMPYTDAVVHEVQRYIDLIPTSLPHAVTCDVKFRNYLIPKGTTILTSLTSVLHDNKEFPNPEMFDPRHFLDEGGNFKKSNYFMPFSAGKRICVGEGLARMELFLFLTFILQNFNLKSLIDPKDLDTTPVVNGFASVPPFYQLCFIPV
T3 sequence (P08684 whole entry): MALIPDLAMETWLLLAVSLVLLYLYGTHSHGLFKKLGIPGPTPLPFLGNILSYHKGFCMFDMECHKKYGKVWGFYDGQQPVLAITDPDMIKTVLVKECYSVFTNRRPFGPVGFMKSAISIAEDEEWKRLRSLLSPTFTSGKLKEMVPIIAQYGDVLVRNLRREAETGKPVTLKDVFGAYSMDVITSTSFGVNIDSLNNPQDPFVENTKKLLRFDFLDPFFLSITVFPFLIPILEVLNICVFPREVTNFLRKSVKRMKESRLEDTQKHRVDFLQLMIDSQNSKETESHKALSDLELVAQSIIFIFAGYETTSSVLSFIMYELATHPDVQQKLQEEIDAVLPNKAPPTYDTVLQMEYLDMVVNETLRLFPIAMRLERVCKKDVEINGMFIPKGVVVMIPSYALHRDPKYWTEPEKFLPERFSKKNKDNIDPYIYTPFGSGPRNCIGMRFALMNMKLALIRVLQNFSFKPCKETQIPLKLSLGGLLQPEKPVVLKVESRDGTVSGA
T1 sequence (P11712 whole entry): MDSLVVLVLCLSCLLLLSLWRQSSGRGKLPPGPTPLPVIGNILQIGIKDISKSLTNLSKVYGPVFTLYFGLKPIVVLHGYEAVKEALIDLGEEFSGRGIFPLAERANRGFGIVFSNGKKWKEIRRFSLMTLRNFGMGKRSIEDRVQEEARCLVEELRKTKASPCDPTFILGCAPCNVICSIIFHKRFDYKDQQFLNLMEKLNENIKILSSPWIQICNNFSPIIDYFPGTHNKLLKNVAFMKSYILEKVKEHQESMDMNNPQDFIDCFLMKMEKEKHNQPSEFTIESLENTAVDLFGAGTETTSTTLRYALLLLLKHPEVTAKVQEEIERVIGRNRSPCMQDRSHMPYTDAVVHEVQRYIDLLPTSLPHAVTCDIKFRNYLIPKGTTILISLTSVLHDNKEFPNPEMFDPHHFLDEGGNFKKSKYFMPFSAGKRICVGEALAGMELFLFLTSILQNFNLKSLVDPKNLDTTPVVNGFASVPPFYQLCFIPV

MIC [2]	Compound	pest or weed control at 50 ppm [5]	other results
	OC(Cn1cncn1)(Cn1cncn1)c1ccc(F)cc1F [Fluconazole, reference compound]		MIC [1]: 0.5 µg/mL (≈ 1.63 µM)
	C[C@@H](c1ncncc1F)[C@](O)(Cn1cncn1)c1ccc(F)cc1F [Voriconazole, reference compound]		MIC [1]: 0.016 µg/mL (≈ 0.0458 µM)
≤ 0.5 µg/mL	N#Cc1ccc(Oc2ccc(C(F)(F)C(O)(Cn3cnnn3)c3ccc(F)cc3F)nc2)cc1 (centres unmarked) [Compound 5, 4-(6-(2-(2,4-Difluorophenyl)-1,1-difluoro-2-hydroxy-3-(1H-tetrazol-1-yl)propyl)pyridin-3-yloxy)benzonitrile]	80 to 100%	IC50 [3]: 31 µM; IC50 [4]: 16 µM; MIC [1]: 0.031 µg/mL (≈ 0.0659 µM); IC50 [6]: 16 µM
≤ 0.5 µg/mL	OC(Cn1cnnn1)(c1ccc(F)cc1F)C(F)(F)c1ccc(OCC(F)(F)c2ccc(Cl)cc2)cn1 (centres unmarked) [Compound 122, 1-(5-(2-(4-chlorophenyl)-2,2-difluoroethoxy)pyridin-2-yl)-2-(2,4-difluorophenyl)-1,1-difluoro-3-(1H-tetrazol-1-yl)propan-2-ol]	80 to 100%	
≤ 0.5 µg/mL	N#Cc1ccc(Oc2ccc(C(F)(F)C(O)(Cn3cnnn3)c3ccc(F)cc3F)nc2)nc1 (centres unmarked) [Compound 93, 6-((6-(2-(2,4-difluorophenyl)-1,1-difluoro-2-hydroxy-3-(1H-tetrazol-1-yl)propyl)pyridin-3-yl)oxy)nicotinonitrile]	80 to 100%	
≤ 0.5 µg/mL	CC(Oc1ccc(C(F)(F)C(O)(Cn2cnnn2)c2ccc(F)cc2F)nc1)C(F)(F)F (centres unmarked) [Compound 47, 2-(2,4-Difluorophenyl)-1,1-difluoro-3-(1H-tetrazol-1-yl)-1-(5-((1,1,1-trifluoropropan-2-yl)oxy)pyridin-2-yl)propan-2-ol]	80 to 100%	
≤ 0.5 µg/mL	OC(Cn1cnnn1)(c1ccc(F)cc1F)C(F)(F)c1ccc(OCC2CC2)cn1 (centres unmarked) [Compound 39, 1-(5-(Cyclopropylmethoxy)pyridin-2-yl)-2-(2,4-difluorophenyl)-1,1-difluoro-3-(1H-tetrazol-1-yl)propan-2-ol]	80 to 100%	
≤ 0.5 µg/mL	N#Cc1cccc(Oc2ccc(C(F)(F)C(O)(Cn3cnnn3)c3ccc(F)cc3F)nc2)c1 (centres unmarked) [Compound 78, 3-((6-(2-(2,4-Difluorophenyl)-1,1-difluoro-2-hydroxy-3-(1H-tetrazol-1-yl)propyl)pyridin-3-yl)oxy)benzonitrile]	80 to 100%	
≤ 0.5 µg/mL	OC(Cn1cnnn1)(c1ccc(F)cc1F)C(F)(F)c1ccc(OCC(F)(F)c2ccc(OC(F)F)cc2)cn1 (centres unmarked) [Compound 120, 1-(5-(2-(4-(difluoromethoxy)phenyl)-2,2-difluoroethoxy)pyridin-2-yl)-2-(2,4-difluorophenyl)-1,1-difluoro-3-(1H-tetrazol-1-yl)propan-2-ol]	80 to 100%	
≤ 0.5 µg/mL	OC(Cn1cnnn1)(c1ccc(F)cc1F)C(F)(F)c1ccc(Oc2ncc(C(F)(F)F)cc2F)cn1 (centres unmarked) [Compound 104, 2-(2,4-difluorophenyl)-1,1-difluoro-1-(5-((3-fluoro-5-(trifluoromethyl)pyridin-2-yl)oxy)pyridin-2-yl)-3-(1H-tetrazol-1-yl)propan-2-ol]	80 to 100%	
≤ 0.5 µg/mL	OC(Cn1cnnn1)(c1ccc(F)cc1F)C(F)(F)c1ccc(Oc2ncc(C(F)(F)F)cc2Cl)cn1 (centres unmarked) [Compound 92, 1-(5-((3-chloro-5-(trifluoromethyl)pyridin-2-yl)oxy)pyridin-2-yl)-2-(2,4-difluorophenyl)-1,1-difluoro-3-(1H-tetrazol-1-yl)propan-2-ol]	80 to 100%	
≤ 0.5 µg/mL	OC(Cn1cnnn1)(c1ccc(F)cc1F)C(F)(F)c1ccc(OCc2ccc(C(F)(F)F)nc2)cn1 (centres unmarked) [Compound 115, 2-(2,4-difluorophenyl)-1,1-difluoro-3-(1H-tetrazol-1-yl)-1-(5-((6-(trifluoromethyl)pyridin-3-yl)methoxy)pyridin-2-yl)propan-2-ol]	80 to 100%	
≤ 0.5 µg/mL	OC(Cn1cnnn1)(c1ccc(F)cc1F)C(F)(F)c1ccc(Oc2ccc(Cl)cn2)cn1 (centres unmarked) [Compound 95, 1-(5-((5-chloropyridin-2-yl)oxy)pyridin-2-yl)-2-(2,4-difluorophenyl)-1,1-difluoro-3-(1H-tetrazol-1-yl)propan-2-ol]	80 to 100%	
≤ 0.5 µg/mL	OC(Cn1cnnn1)(c1ccc(F)cc1F)C(F)(F)c1ccc(Oc2ccc(C(F)(F)F)cc2)cn1 (centres unmarked) [Compound 75, 2-(2,4-Difluorophenyl)-1,1-difluoro-3-(1H-tetrazol-1-yl)-1-(5-(4-(trifluoromethyl)phenoxy)pyridin-2-yl)propan-2-ol]	80 to 100%	
1.5 to 4 µg/mL (≈ 3.18 to 8.49 µM)	N#Cc1cc(Oc2ccc(C(F)(F)C(O)(Cn3cnnn3)c3ccc(F)cc3F)nc2)ccn1 (centres unmarked) [Compound 96, 4-((6-(2-(2,4-difluorophenyl)-1,1-difluoro-2-hydroxy-3-(1H-tetrazol-1-yl)propyl)pyridin-3-yl)oxy)picolinonitrile]	60 to 79%	
≤ 0.5 µg/mL	OC(Cn1cnnn1)(c1ccc(Cl)cc1F)C(F)(F)c1ccc(OCC2CC2)cn1 (centres unmarked) [Compound 54, 2-(4-Chloro-2-fluorophenyl)-1-(5-(cyclopropylmethoxy)pyridin-2-yl)-1,1-difluoro-3-(1H-tetrazol-1-yl)propan-2-ol]	80 to 100%	
> 4 µg/mL	O=Cc1ccc(Oc2ccc(C(F)(F)C(O)(Cn3cnnn3)c3ccc(F)cc3F)nc2)nc1 (centres unmarked) [Compound 101, 6-((6-(2-(2,4-difluorophenyl)-1,1-difluoro-2-hydroxy-3-(1H-tetrazol-1-yl)propyl)pyridin-3-yl)oxy)nicotinaldehyde]	< 40%	
≤ 0.5 µg/mL	N#Cc1ccc(Oc2ccc(C(F)(F)C(O)(Cn3cnnn3)c3ccc(F)cc3F)nc2)c(F)c1 (centres unmarked) [Compound 89, 4-((6-(2-(2,4-Difluorophenyl)-1,1-difluoro-2-hydroxy-3-(1H-tetrazol-1-yl)propyl)pyridin-3-yl)oxy)-3-fluorobenzonitrile]	80 to 100%	
≤ 0.5 µg/mL	N#Cc1ccc(COc2ccc(C(F)(F)C(O)(Cn3cnnn3)c3ccc(F)cc3F)nc2)c(F)c1 (centres unmarked) [Compound 57, 4-(((6-(2-(2,4-Difluorophenyl)-1,1-difluoro-2-hydroxy-3-(1H-tetrazol-1-yl)propyl)pyridin-3-yl)oxy)methyl)-3-fluorobenzonitrile]	80 to 100%	
≤ 0.5 µg/mL	N#Cc1ccc(Oc2ccc(C(F)(F)C(O)(Cn3cnnn3)c3ccc(F)cc3F)nc2)cc1F (centres unmarked) [Compound 17, 4-((6-(2-(2,4-Difluorophenyl)-1,1-difluoro-2-hydroxy-3-(1H-tetrazol-1-yl)propyl)pyridin-3-yl)oxy)-2-fluorobenzonitrile]	80 to 100%	

Compound	MIC [2]	pest or weed control at 50 ppm [5]	other results
CC(C)COc1ccc(C(F)(F)C(O)(Cn2cnnn2)c2ccc(F)cc2F)nc1 (centres unmarked) [Compound 43, 2-(2,4-Difluorophenyl)-1,1-difluoro-1-(5-isobutoxypyridin-2-yl)-3-(1H-tetrazol-1-yl)propan-2-ol]	≤ 0.5 µg/mL	80 to 100%	
